# Data as given in article PMC2990605 (British Journal of Cancer, 2010).
# Assay: Adverse events (CTCAEv3.0), worst grade per patient regardless of relation, and laboratory parameters
# Format: in vivo
# Conditions: for Alanine aminotransferase increased, CTCAE grade 5, patients / Alopecia, CTCAE grade 5, patients / Anaemia, CTCAE grade 5, patients / Anorexia, CTCAE grade 5, patients / Arthralgia, CTCAE grade 5, patients / Back pain, CTCAE grade 5, patients / Blood bilirubin, CTCAE grade 5, patients / Bronchitis, CTCAE grade 5, patients / Constipation, CTCAE grade 5, patients / Cough, CTCAE grade 5, patients / Cystitis, CTCAE grade 5, patients / Dehydration, CTCAE grade 5, patients / Diabetes mellitus, CTCAE grade 5, patients / Diarrhoea, CTCAE grade 5, patients / Dizziness, CTCAE grade 5, patients / Drug hypersensitivity, CTCAE grade 5, patients / Dry skin, CTCAE grade 5, patients / Dyspnoea, CTCAE grade 5, patients / Eosinophilic myocarditis, CTCAE grade 5, patients / Erythema, CTCAE grade 5, patients / Fatigue, CTCAE grade 5, patients / Gastric dilatation, CTCAE grade 5, patients / General physical health deterioration, CTCAE grade 5, patients / Hypercalcaemia, CTCAE grade 5, patients / Hyperglycaemia, CTCAE grade 5, patients / Hyperhidrosis, CTCAE grade 5, patients / Leukopenia, CTCAE grade 5, patients / Malaise, CTCAE grade 5, patients / Mucosal inflammation, CTCAE grade 5, patients / Myalgia, CTCAE grade 5, patients / Nasopharyngitis, CTCAE grade 5, patients / Nausea, CTCAE grade 5, patients / Neutropenia, CTCAE grade 5, patients / Oedema peripheral, CTCAE grade 5, patients / Oedema, CTCAE grade 5, patients / Peripheral sensory neuropathy, CTCAE grade 5, patients / Pollakiuria, CTCAE grade 5, patients / Pruritus, CTCAE grade 5, patients / Pulmonary embolism, CTCAE grade 5, patients / Pyrexia, CTCAE grade 5, patients / Rash, CTCAE grade 5, patients / Spinal cord compression, CTCAE grade 5, patients / Tumour pain, CTCAE grade 5, patients / Urinary tract infection, CTCAE grade 5, patients / Vomiting, CTCAE grade 5, patients / γ-glutamyltransferase increased, CTCAE grade 5, patients: with paclitaxel
# Experimental: Toxicity was evaluated according to common toxicity criteria for adverse events (CTCAEv3.0). The MTD was defined as the dose level(s) at which at least two out of six patients developed DLT.
# Toxicity assessment, haematology and clinical biochemistry were performed at baseline and weekly during the study. Physical and ECOG performance status were recorded at baseline and before the next cycle.
structure (smiles),measurement,setting,value
CC(C)C[C@@H](C(=O)N[C@H](C(=O)OC1CCCC1)c1ccccc1)[C@H](O)C(=O)NO [tosedostat],"Alanine aminotransferase increased, CTCAE grade 5, patients",all cycles,0
same,"Alopecia, CTCAE grade 5, patients",all cycles,0
same,"Anaemia, CTCAE grade 5, patients",all cycles,0
same,"Anorexia, CTCAE grade 5, patients",all cycles,0
same,"Arthralgia, CTCAE grade 5, patients",all cycles,0
same,"Back pain, CTCAE grade 5, patients",all cycles,0
same,"Blood bilirubin, CTCAE grade 5, patients",all cycles,0
same,"Bronchitis, CTCAE grade 5, patients",all cycles,0
same,"Constipation, CTCAE grade 5, patients",all cycles,0
same,"Cough, CTCAE grade 5, patients",all cycles,0
same,"Cystitis, CTCAE grade 5, patients",all cycles,0
same,"Dehydration, CTCAE grade 5, patients",all cycles,0
same,"Diabetes mellitus, CTCAE grade 5, patients",all cycles,0
same,"Diarrhoea, CTCAE grade 5, patients",all cycles,0
same,"Dizziness, CTCAE grade 5, patients",all cycles,0
same,"Drug hypersensitivity, CTCAE grade 5, patients",all cycles,0
same,"Dry skin, CTCAE grade 5, patients",all cycles,0
same,"Dyspnoea, CTCAE grade 5, patients",all cycles,0
same,"Eosinophilic myocarditis, CTCAE grade 5, patients",all cycles,1
same,"Erythema, CTCAE grade 5, patients",all cycles,0
same,"Fatigue, CTCAE grade 5, patients",all cycles,0
same,"Gastric dilatation, CTCAE grade 5, patients",all cycles,0
same,"General physical health deterioration, CTCAE grade 5, patients",all cycles,0
same,"Hypercalcaemia, CTCAE grade 5, patients",all cycles,0
same,"Hyperglycaemia, CTCAE grade 5, patients",all cycles,0
same,"Hyperhidrosis, CTCAE grade 5, patients",all cycles,0
same,"Leukopenia, CTCAE grade 5, patients",all cycles,0
same,"Malaise, CTCAE grade 5, patients",all cycles,0
same,"Mucosal inflammation, CTCAE grade 5, patients",all cycles,0
same,"Myalgia, CTCAE grade 5, patients",all cycles,0
same,"Nasopharyngitis, CTCAE grade 5, patients",all cycles,0
same,"Nausea, CTCAE grade 5, patients",all cycles,0
same,"Neutropenia, CTCAE grade 5, patients",all cycles,0
same,"Oedema peripheral, CTCAE grade 5, patients",all cycles,0
same,"Oedema, CTCAE grade 5, patients",all cycles,0
same,"Peripheral sensory neuropathy, CTCAE grade 5, patients",all cycles,0
same,"Pollakiuria, CTCAE grade 5, patients",all cycles,0
same,"Pruritus, CTCAE grade 5, patients",all cycles,0
same,"Pulmonary embolism, CTCAE grade 5, patients",all cycles,0
same,"Pyrexia, CTCAE grade 5, patients",all cycles,0
same,"Rash, CTCAE grade 5, patients",all cycles,0
same,"Spinal cord compression, CTCAE grade 5, patients",all cycles,0
same,"Tumour pain, CTCAE grade 5, patients",all cycles,0
same,"Urinary tract infection, CTCAE grade 5, patients",all cycles,0
same,"Vomiting, CTCAE grade 5, patients",all cycles,0
same,"γ-glutamyltransferase increased, CTCAE grade 5, patients",all cycles,0
same,"Alanine aminotransferase increased, CTCAE grade 5, patients",first 21 days,0
same,"Alopecia, CTCAE grade 5, patients",first 21 days,0
same,"Anaemia, CTCAE grade 5, patients",first 21 days,0
same,"Anorexia, CTCAE grade 5, patients",first 21 days,0
same,"Arthralgia, CTCAE grade 5, patients",first 21 days,0
same,"Back pain, CTCAE grade 5, patients",first 21 days,0
same,"Blood bilirubin, CTCAE grade 5, patients",first 21 days,0
same,"Bronchitis, CTCAE grade 5, patients",first 21 days,0
same,"Constipation, CTCAE grade 5, patients",first 21 days,0
same,"Cough, CTCAE grade 5, patients",first 21 days,0
same,"Cystitis, CTCAE grade 5, patients",first 21 days,0
same,"Dehydration, CTCAE grade 5, patients",first 21 days,0
same,"Diabetes mellitus, CTCAE grade 5, patients",first 21 days,0
same,"Diarrhoea, CTCAE grade 5, patients",first 21 days,0
same,"Dizziness, CTCAE grade 5, patients",first 21 days,0
same,"Drug hypersensitivity, CTCAE grade 5, patients",first 21 days,0
same,"Dry skin, CTCAE grade 5, patients",first 21 days,0
same,"Dyspnoea, CTCAE grade 5, patients",first 21 days,0
same,"Eosinophilic myocarditis, CTCAE grade 5, patients",first 21 days,0
same,"Erythema, CTCAE grade 5, patients",first 21 days,0
same,"Fatigue, CTCAE grade 5, patients",first 21 days,0
same,"Gastric dilatation, CTCAE grade 5, patients",first 21 days,0
same,"General physical health deterioration, CTCAE grade 5, patients",first 21 days,0
same,"Hypercalcaemia, CTCAE grade 5, patients",first 21 days,0
same,"Hyperglycaemia, CTCAE grade 5, patients",first 21 days,0
same,"Hyperhidrosis, CTCAE grade 5, patients",first 21 days,0
same,"Leukopenia, CTCAE grade 5, patients",first 21 days,0
same,"Malaise, CTCAE grade 5, patients",first 21 days,0
same,"Mucosal inflammation, CTCAE grade 5, patients",first 21 days,0
same,"Myalgia, CTCAE grade 5, patients",first 21 days,0
same,"Nasopharyngitis, CTCAE grade 5, patients",first 21 days,0
same,"Nausea, CTCAE grade 5, patients",first 21 days,0
same,"Neutropenia, CTCAE grade 5, patients",first 21 days,0
same,"Oedema peripheral, CTCAE grade 5, patients",first 21 days,0
same,"Oedema, CTCAE grade 5, patients",first 21 days,0
same,"Peripheral sensory neuropathy, CTCAE grade 5, patients",first 21 days,0
same,"Pollakiuria, CTCAE grade 5, patients",first 21 days,0
same,"Pruritus, CTCAE grade 5, patients",first 21 days,0
same,"Pulmonary embolism, CTCAE grade 5, patients",first 21 days,0
same,"Pyrexia, CTCAE grade 5, patients",first 21 days,0
same,"Rash, CTCAE grade 5, patients",first 21 days,0
same,"Spinal cord compression, CTCAE grade 5, patients",first 21 days,0
same,"Tumour pain, CTCAE grade 5, patients",first 21 days,0
same,"Urinary tract infection, CTCAE grade 5, patients",first 21 days,0
same,"Vomiting, CTCAE grade 5, patients",first 21 days,0
same,"γ-glutamyltransferase increased, CTCAE grade 5, patients",first 21 days,0
same,"Alanine aminotransferase increased, CTCAE grade 1, patients","human, in vivo",1
same,"Alanine aminotransferase increased, CTCAE grade 2, patients","human, in vivo",1
same,"Alanine aminotransferase increased, CTCAE grade 3, patients","human, in vivo",1
same,"Alanine aminotransferase increased, CTCAE grade 4, patients","human, in vivo",0
same,"Alanine aminotransferase increased, patients with events, %","human, in vivo",14%
same,"Alopecia, CTCAE grade 2, patients","human, in vivo",20
same,"Alopecia, CTCAE grade 3, patients","human, in vivo",0
same,"Alopecia, CTCAE grade 4, patients","human, in vivo",0
same,"Alopecia, patients with events, %","human, in vivo",95%
same,"Anaemia, CTCAE grade 1, patients","human, in vivo",1
same,"Anaemia, CTCAE grade 4, patients","human, in vivo",0
same,"Anorexia, CTCAE grade 1, patients","human, in vivo",6
same,"Anorexia, CTCAE grade 2, patients","human, in vivo",2
same,"Anorexia, CTCAE grade 3, patients","human, in vivo",2
same,"Anorexia, CTCAE grade 4, patients","human, in vivo",0
same,"Anorexia, patients with events, %","human, in vivo",45%
same,"Arthralgia, CTCAE grade 1, patients","human, in vivo",5
same,"Arthralgia, CTCAE grade 2, patients","human, in vivo",0
same,"Arthralgia, CTCAE grade 3, patients","human, in vivo",0
same,"Arthralgia, CTCAE grade 4, patients","human, in vivo",0
same,"Arthralgia, patients with events, %","human, in vivo",23%
same,"Back pain, CTCAE grade 1, patients","human, in vivo",3
same,"Back pain, CTCAE grade 2, patients","human, in vivo",2
same,"Back pain, CTCAE grade 3, patients","human, in vivo",0
same,"Back pain, CTCAE grade 4, patients","human, in vivo",0
same,"Back pain, patients with events, %","human, in vivo",23%
same,"Blood bilirubin, CTCAE grade 1, patients","human, in vivo",0
same,"Blood bilirubin, CTCAE grade 2, patients","human, in vivo",0
same,"Blood bilirubin, CTCAE grade 3, patients","human, in vivo",1
same,"Blood bilirubin, CTCAE grade 4, patients","human, in vivo",0
same,"Blood bilirubin, patients with events, %","human, in vivo",5%
same,"Bronchitis, CTCAE grade 1, patients","human, in vivo",0
same,"Bronchitis, CTCAE grade 2, patients","human, in vivo",0
same,"Bronchitis, CTCAE grade 3, patients","human, in vivo",1
same,"Bronchitis, CTCAE grade 4, patients","human, in vivo",0
same,"Bronchitis, patients with events, %","human, in vivo",5%
same,"Constipation, CTCAE grade 1, patients","human, in vivo",3
same,"Constipation, CTCAE grade 2, patients","human, in vivo",3
same,"Constipation, CTCAE grade 3, patients","human, in vivo",0
same,"Constipation, CTCAE grade 4, patients","human, in vivo",0
same,"Constipation, patients with events, %","human, in vivo",27%
same,"Cough, CTCAE grade 1, patients","human, in vivo",8
same,"Cough, CTCAE grade 2, patients","human, in vivo",1
